Measured values as given in US10517889B2, “Modulators of SMAD7 expression” (Ionis Pharmaceuticals, Inc., priority 2017, dated 2019).
Strand notation (5' to 3'): a small letter for the sugar, then the base; units joined by * are phosphorothioate-linked, units joined directly phosphodiester-linked; [ ] holds rarer units or linkages, { } end groups; capitals alone tell only the bases. k = constrained ethyl (cEt); [5mC] = 5-methylcytosine; d = 2'-deoxy (DNA)

What follows are substances tested on human SMAD7 mRNA (assay: Antisense inhibition of human SMAD7 mRNA expression in Hep3B cells by 3-10-3 cEt gapmers, 10,000 nM, electroporation (Example 2)). Conditions: Hep3B cells, electroporation with 10,000 nM antisense oligonucleotide, approximately 24 hours, SMAD7 mRNA by RT-PCR (RTS5062), relative to untreated control cells.
Type: cell-based
Method in brief: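 Hep3B cells (20,000/well) were electroporated with 10,000 nM 3-10-3 cEt gapmer (16-mer, phosphorothioate, 5-methylcytosines) and harvested after about 24 h. SMAD7 mRNA quantified by RT-qPCR with primer probe set RTS5062, normalized to total RNA by RiboGreen; percent inhibition relative to untreated cells.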

Q: For “798693 (antisense kG*k[5mC]*k[5mC]*dG*dG*dG*d[5mC]*dG*d[5mC]*dA*d[5mC]*dG*dG*k[5mC]*kT*k[5mC]) [compound 798693]”, which “% Inhibition” value is on record?
A: The value was 0%.

Q: Which “% Inhibition” value does the source give for “798694 (antisense kG*kT*k[5mC]*d[5mC]*dT*d[5mC]*dG*d[5mC]*d[5mC]*dG*d[5mC]*d[5mC]*dG*kG*kG*k[5mC]) [compound 798694]” here?
A: The value was 0%.

Q: Which “% Inhibition” value does the source give for “798695 (antisense kT*kG*k[5mC]*dG*d[5mC]*d[5mC]*d[5mC]*dT*d[5mC]*d[5mC]*dT*d[5mC]*d[5mC]*kT*k[5mC]*kG) [compound 798695]” here?
A: The value was 35%.

Q: “798697 (antisense kA*k[5mC]*k[5mC]*dT*d[5mC]*d[5mC]*d[5mC]*d[5mC]*d[5mC]*dT*dG*d[5mC]*dG*k[5mC]*k[5mC]*k[5mC]) [compound 798697]” was tested. Which “% Inhibition” value did it give?
A: Its value is 23%.

Q: Which “% Inhibition” value does the source give for “798698 (antisense kA*kG*k[5mC]*dT*d[5mC]*dG*d[5mC]*d[5mC]*dT*d[5mC]*d[5mC]*dT*d[5mC]*k[5mC]*kT*k[5mC]) [compound 798698]” here?
A: Its value is 57%.

Q: For “798699 (antisense k[5mC]*kG*k[5mC]*dA*dG*d[5mC]*dT*d[5mC]*dG*d[5mC]*d[5mC]*dT*d[5mC]*k[5mC]*kT*k[5mC]) [compound 798699]”, which “% Inhibition” value is on record?
A: Its value is 51%.

Q: For “798700 (antisense k[5mC]*k[5mC]*k[5mC]*d[5mC]*dG*d[5mC]*dA*dG*d[5mC]*dT*d[5mC]*dG*d[5mC]*k[5mC]*kT*k[5mC]) [compound 798700]”, which “% Inhibition” value is on record?
A: Its value is 52%.

Q: With “798701 (antisense k[5mC]*kT*kT*d[5mC]*dT*d[5mC]*d[5mC]*d[5mC]*d[5mC]*dG*d[5mC]*dA*dG*k[5mC]*kT*k[5mC]) [compound 798701]” as the substance, how does the “% Inhibition” value read?
A: Its value is 23%.

Q: “798702 (antisense k[5mC]*k[5mC]*k[5mC]*d[5mC]*dT*dT*d[5mC]*dT*d[5mC]*d[5mC]*d[5mC]*d[5mC]*dG*k[5mC]*kA*kG) [compound 798702]” was tested. Which “% Inhibition” value did it give?
A: The value was 45%.

Q: With “798713 (antisense kG*k[5mC]*k[5mC]*dG*d[5mC]*d[5mC]*dA*d[5mC]*d[5mC]*dG*dG*d[5mC]*d[5mC]*k[5mC]*k[5mC]*kA) [compound 798713]” as the substance, how does the “% Inhibition” value read?
A: The value was 45%.

Q: For “798714 (antisense kG*kG*k[5mC]*d[5mC]*dG*d[5mC]*d[5mC]*dG*d[5mC]*d[5mC]*dA*d[5mC]*d[5mC]*kG*kG*k[5mC]) [compound 798714]”, which “% Inhibition” value is on record?
A: Its value is 0%.

Q: Which “% Inhibition” value does the source give for “798715 (antisense kG*k[5mC]*k[5mC]*d[5mC]*dG*dG*dG*d[5mC]*d[5mC]*dG*d[5mC]*d[5mC]*dG*k[5mC]*k[5mC]*kA) [compound 798715]” here?
A: The value was 0%.

Q: Which “% Inhibition” value does the source give for “798716 (antisense k[5mC]*k[5mC]*kT*dG*d[5mC]*d[5mC]*d[5mC]*dG*dG*dG*d[5mC]*d[5mC]*dG*k[5mC]*k[5mC]*kG) [compound 798716]” here?
A: Its value is 0%.

Q: For “798717 (antisense kA*kG*k[5mC]*d[5mC]*d[5mC]*dT*dG*d[5mC]*d[5mC]*d[5mC]*dG*dG*dG*k[5mC]*k[5mC]*kG) [compound 798717]”, which “% Inhibition” value is on record?
A: Its value is 18%.

Q: For “798718 (antisense kA*kT*k[5mC]*d[5mC]*dA*dG*d[5mC]*d[5mC]*d[5mC]*dT*dG*d[5mC]*d[5mC]*k[5mC]*kG*kG) [compound 798718]”, which “% Inhibition” value is on record?
A: The value was 37%.

Q: “798719 (antisense kA*kG*k[5mC]*dA*dT*d[5mC]*d[5mC]*dA*dG*d[5mC]*d[5mC]*d[5mC]*dT*kG*k[5mC]*k[5mC]) [compound 798719]” was tested. Which “% Inhibition” value did it give?
A: Its value is 34%.

Q: With “798720 (antisense kG*kG*k[5mC]*dA*dG*d[5mC]*dA*dT*d[5mC]*d[5mC]*dA*dG*d[5mC]*k[5mC]*k[5mC]*kT) [compound 798720]” as the substance, how does the “% Inhibition” value read?
A: The value was 25%.

Q: With “798721 (antisense kG*k[5mC]*k[5mC]*d[5mC]*dA*dG*dG*d[5mC]*dA*dG*d[5mC]*dA*dT*k[5mC]*k[5mC]*kA) [compound 798721]” as the substance, how does the “% Inhibition” value read?
A: Its value is 41%.

Q: With “798722 (antisense k[5mC]*kT*kT*dG*d[5mC]*d[5mC]*d[5mC]*dA*dG*dG*d[5mC]*dA*dG*k[5mC]*kA*kT) [compound 798722]” as the substance, how does the “% Inhibition” value read?
A: The value was 0%.

Same assay, conditions: Hep3B cells, electroporation with 10,000 nM antisense oligonucleotide, approximately 24 hours, primer probe set RTS5062, relative to untreated control cells

Q: “798688 (antisense kG*kT*k[5mC]*d[5mC]*dT*dG*dA*dA*d[5mC]*dA*dT*dG*d[5mC]*kG*kG*kG) [compound 798688]” was tested. Which “% inhibition of SMAD7 mRNA expression” value did it give?
A: Its value is 68%.

Q: How did the “% inhibition of SMAD7 mRNA expression” value turn out when “798689 (antisense kG*k[5mC]*k[5mC]*dG*dG*dA*d[5mC]*dG*dA*dG*d[5mC]*dG*d[5mC]*kA*kG*kA) [compound 798689]” was run?
A: The value was 33%.

Q: Which “% inhibition of SMAD7 mRNA expression” value does the source give for “798690 (antisense kG*kG*k[5mC]*dT*d[5mC]*d[5mC]*dT*d[5mC]*d[5mC]*dA*dG*dA*dG*kA*k[5mC]*kG) [compound 798690]” here?
A: Its value is 29%.

Q: For “798691 (antisense k[5mC]*kG*k[5mC]*dA*d[5mC]*dG*dG*d[5mC]*dT*d[5mC]*d[5mC]*dT*d[5mC]*k[5mC]*kA*kG) [compound 798691]”, which “% inhibition of SMAD7 mRNA expression” value is on record?
A: Its value is 42%.

Q: How did the “% inhibition of SMAD7 mRNA expression” value turn out when “798692 (antisense kG*kG*kG*d[5mC]*dG*d[5mC]*dA*d[5mC]*dG*dG*d[5mC]*dT*d[5mC]*k[5mC]*kT*k[5mC]) [compound 798692]” was run?
A: The value was 48%.

Q: Which “% inhibition of SMAD7 mRNA expression” value does the source give for “798703 (antisense kG*kT*k[5mC]*d[5mC]*dG*dT*d[5mC]*dG*d[5mC]*d[5mC]*d[5mC]*d[5mC]*dT*kT*k[5mC]*kT) [compound 798703]” here?
A: Its value is 68%.

Q: How did the “% inhibition of SMAD7 mRNA expression” value turn out when “798704 (antisense k[5mC]*kT*kG*dT*d[5mC]*d[5mC]*dG*dT*d[5mC]*dG*d[5mC]*d[5mC]*d[5mC]*k[5mC]*kT*kT) [compound 798704]” was run?
A: Its value is 61%.

Q: “798705 (antisense kG*kG*k[5mC]*dT*dG*dT*d[5mC]*d[5mC]*dG*dT*d[5mC]*dG*d[5mC]*k[5mC]*k[5mC]*k[5mC]) [compound 798705]” was tested. Which “% inhibition of SMAD7 mRNA expression” value did it give?
A: Its value is 41%.

Q: With “798706 (antisense k[5mC]*kG*kG*d[5mC]*dT*dG*dT*d[5mC]*d[5mC]*dG*dT*d[5mC]*dG*k[5mC]*k[5mC]*k[5mC]) [compound 798706]” as the substance, how does the “% inhibition of SMAD7 mRNA expression” value read?
A: Its value is 1%.

Q: How did the “% inhibition of SMAD7 mRNA expression” value turn out when “798707 (antisense kG*k[5mC]*kT*d[5mC]*dG*dG*d[5mC]*dT*dG*dT*d[5mC]*d[5mC]*dG*kT*k[5mC]*kG) [compound 798707]” was run?
A: Its value is 74%.

Q: For “798708 (antisense k[5mC]*kG*k[5mC]*dT*d[5mC]*dG*dG*d[5mC]*dT*dG*dT*d[5mC]*d[5mC]*kG*kT*k[5mC]) [compound 798708]”, which “% inhibition of SMAD7 mRNA expression” value is on record?
A: The value was 45%.

Q: Which “% inhibition of SMAD7 mRNA expression” value does the source give for “798709 (antisense kT*kG*k[5mC]*dG*d[5mC]*dT*d[5mC]*dG*dG*d[5mC]*dT*dG*dT*k[5mC]*k[5mC]*kG) [compound 798709]” here?
A: Its value is 2%.

Q: For “798710 (antisense k[5mC]*k[5mC]*k[5mC]*d[5mC]*dA*dT*dG*d[5mC]*dG*d[5mC]*dT*d[5mC]*dG*kG*k[5mC]*kT) [compound 798710]”, which “% inhibition of SMAD7 mRNA expression” value is on record?
A: Its value is 54%.

Q: “798711 (antisense k[5mC]*kG*kG*d[5mC]*d[5mC]*d[5mC]*d[5mC]*dA*dT*dG*d[5mC]*dG*d[5mC]*kT*k[5mC]*kG) [compound 798711]” was tested. Which “% inhibition of SMAD7 mRNA expression” value did it give?
A: Its value is 59%.

Q: With “798712 (antisense kG*k[5mC]*k[5mC]*dA*d[5mC]*d[5mC]*dG*dG*d[5mC]*d[5mC]*d[5mC]*d[5mC]*dA*kT*kG*k[5mC]) [compound 798712]” as the substance, how does the “% inhibition of SMAD7 mRNA expression” value read?
A: The value was 6%.

Q: “798723 (antisense k[5mC]*kG*k[5mC]*d[5mC]*dT*dT*dG*d[5mC]*d[5mC]*d[5mC]*dA*dG*dG*k[5mC]*kA*kG) [compound 798723]” was tested. Which “% inhibition of SMAD7 mRNA expression” value did it give?
A: Its value is 0%.
